Test results reported in patent US20070135470A1, “Utilization of vinpocetine to avoid complications in particular those associated to hearing which occur with epilepsy, and treatment thereof” (UNIVERSIDAD NACIONAL AUTONOMA DE MEXICO, priority 2003, published 2007).

Key:
Type in all cases: in vivo, guinea pig
[1] = tested on: epilepsy induced by PTZ in guinea pigs; experiment: ABR wave parameters (amplitude, latency) in PTZ-induced epilepsy; details: 100 dB, vinpocetine 2 mg/kg or vehicle 4 h before PTZ
Protocol: (§1) Experiments were performed in pigmented adult male guinea pigs initially weighing 349±38 g. ABRs recordings were used to evaluate the hearing status of each animal and EEG recordings to evaluate changes in cortical excitability. The ABR and EEG recordings were obtained following a method that we have previously reported (Nekrassov and Sitges, 2003). The Institutional Animal Use and Care Committee approved all experimental procedures.
(§2) Three types of recordings were performed in the anaesthetized animals, namely the ABR recordings elicited by a stimulus of high intensity (100 dB), the ABR recordings for determination of the auditory threshold and the EEG recordings.
(§3) Determination of ABR wave parameters. The latency and amplitude of each wave component of the ABR elicited by a stimulus of 100 dB with pure tone frequencies of 4 and 8 kHz was measured in all the ABR recordings obtained under the different experimental conditions at the specified times. The latency of each ABR wave (in ms) refers to the time interval between the onset of the auditory stimulus and the positive peak of the wave. The onset of the stimulus is indicated by the vertical arrow at the bottom of the recordings on FIG. 1. The peak amplitude (in μV) of each wave of the ABR is the difference between the positive peak of the wave and the reference baseline (trace between the stimulus and the appearance of the first ABR wave on FIG. 1).
(§4) Student's t-test was used for the evaluation of the differences between results obtained before and at the specified times after the injection of the convulsing agents. The criterion for statistical significance for all measures was P≦0.05. All data are expressed as means±standard error of the mean. In figures and tables the symbol * is used for indicating statistic significant differences.
(§5) Eight male guinea pigs were entered into this study. PTZ was dissolved in saline and vinpocetine in a saline acidified (with HCl) adjusted to pH 4 (with NaOH). Four hours after injecting guinea pigs with vehicle (acidified saline used to dissolve vinpocetine) the animals were anaesthetized and a first set of ABR and EEG recordings was taken before the injection (i.p) of the convulsing agent, PTZ. The animals were injected with PTZ (100 mg/kg) and about 2 min after injecting PTZ (ictal period) the EEG recording was taken. Then the other series of ABR and EEG recordings were taken at specific times within the post-ictal period. After two weeks the same series of recordings was taken but instead vehicle the animals were injected with vinpocetine (2 mg/kg) 4 hours before the injection of PTZ.

[2] = tested on: epileptic cortical activity induced by PTZ in guinea pigs; experiment: EEG recordings of cortical activity in PTZ-induced epilepsy; details: PTZ 100 mg/kg i.p.
Protocol: as §1, §2, §5
Vinpocetine inhibits all the changes induced by PTZ on the EEG. […] This dramatic change on the cortical activity induced by PTZ in the anaesthetized animals during convulsions is followed by a typical pattern of cortical activity characterized by rhythmic spike bursts of high amplitude. The duration time of this typical pattern of cortical activity, that is not accompanied by convulsions is referred as the post-ictal period.

[3] = tested on: hearing loss induced by PTZ in guinea pigs; experiment: ABR (auditory) threshold in PTZ-induced epilepsy; details: vinpocetine 2 mg/kg or vehicle 4 h before PTZ
Protocol: as §1, §2
(§6) Determination of ABR thresholds. ABR recordings elicited by stimuli of progressively lower intensity (in dB) were used for determining the hearing threshold. Threshold is defined as the lowest stimulus intensity (in dB) at which the P3 wave of the ABR could still be recorded in three consecutive trials.
as §4, §5

[4] = tested on: epilepsy induced by 4-AP in guinea pigs; experiment: ABR wave parameters (amplitude, latency) in 4-AP-induced epilepsy; details: 100 dB, vinpocetine 2 mg/kg or vehicle 1 h before 4-AP
Protocol: as §1, §2, §3, §4
(§7) Five guinea pigs were entered into the study. One hour after injecting guinea pigs with vehicle (acidified saline used to dissolve vinpocetine) the animals were anaesthetized and a first set of ABR and EEG recordings was taken before the injection (i.p) of the convulsing agent, 4-AP. The animals were injected with 4-AP (2 mg/kg) and about 20 min after injecting 4-AP (ictal period) the EEG recording was taken. Then the other series of ABR and EEG recordings were taken at specific times within the post-ictal period. After two weeks the same series of recordings were repeated but instead vehicle the animals were injected with vinpocetine (2 mg/kg) 1 hour before the injection of 4-AP.

[5] = tested on: epileptic cortical activity induced by 4-AP in guinea pigs; experiment: EEG recordings of cortical activity in 4-AP-induced epilepsy; details: 4-AP 2 mg/kg i.p.
Protocol: as §1, §2, §7
Vinpocetine inhibits all the changes induced by 4-AP on the EEG. […] This change on the cortical activity elicited by 4-AP for the ictal period is followed by the post-ictal period characterized by isolated spikes of higher amplitude that appear on the EEG about one hour after the injection of 4-AP. […] The top traces of FIG. 6 show the characteristic EEG recordings taken before the injection of 4-AP in the animals pre-injected with vehicle (a) and in the animals pre-injected with vinpocetine (b). The changes induced by 4-AP on for the ictal period are shown in the second trace on FIG. 6a. In the vinpocetine treated animals 4-AP was unable to induce the ictal activity (second trace on FIG. 6b).

[6] = tested on: hearing loss induced by 4-AP in guinea pigs; experiment: ABR (auditory) threshold in 4-AP-induced epilepsy; details: vinpocetine 2 mg/kg or vehicle 1 h before 4-AP
Protocol: as §1, §2, §6, §4, §7

[7] = 4 kHz, 30 min after PTZ 100 mg/kg i.p.
[8] = 4 kHz, 50 min after PTZ 100 mg/kg i.p.
[9] = 8 kHz, 30 min after PTZ 100 mg/kg i.p.
[10] = 8 kHz, 50 min after PTZ 100 mg/kg i.p.
[11] = animals pre-injected with vehicle
[12] = 4 kHz, 30 min after 4-AP 2 mg/kg i.p.
[13] = 4 kHz, 60 min after 4-AP 2 mg/kg i.p.
[14] = 8 kHz, 30 min after 4-AP 2 mg/kg i.p.
[15] = 8 kHz, 60 min after 4-AP 2 mg/kg i.p.

For `C1CCc2nnnn2CC1` [PTZ, pentylenetetrazole], the “P4 wave peak amplitude of the ABR” value ([1]; 4 kHz, 10 min after PTZ 100 mg/kg i.p.) was 1.70 ± 0.5 * μV, the “P4 wave peak amplitude of the ABR” value ([1]; 4 kHz, 20 min after PTZ 100 mg/kg i.p.) was 2.12 ± 0.4 * μV and the “P4 wave peak amplitude of the ABR” value [1, 7] was 1.84 ± 0.4 * μV. The “P4 wave peak amplitude of the ABR” value [1, 8] was 2.11 ± 0.3 * μV, the “P4 wave peak amplitude of the ABR” value ([1]; 8 kHz, 10 min after PTZ 100 mg/kg i.p.) was 2.07 ± 0.4 * μV and the “P4 wave peak amplitude of the ABR” value ([1]; 8 kHz, 20 min after PTZ 100 mg/kg i.p.) was 1.99 ± 0.3 * μV. For the same compound, the “P4 wave peak amplitude of the ABR” value [1, 9] was 1.92 ± 0.3 * μV, the “P4 wave peak amplitude of the ABR” value [1, 10] was 1.51 ± 0.5 * μV and the “onset of seizure activity in the EEG after injection” value [2] was “within the two first min”. For the same compound, the “seizure induction in anaesthetized animals” value [2, 11] was “developed generalized seizures”, the auditory threshold [3, 7] was 28 ± 2.0 * dB and the auditory threshold [3, 8] was 29 ± 1.0 * dB. The auditory threshold [3, 9] was 17 ± 2.0 * dB and the auditory threshold [3, 10] was 21 ± 2.4 * dB.

With `Nc1ccncc1` [4-AP, 4-aminopyridine] the “latency of the P4 wave of the ABR” value [4, 12] was 3.78 ± 0.09 * ms, the “latency of the P4 wave of the ABR” value [4, 13] was 3.78 ± 0.09 * ms and the “latency of the P4 wave of the ABR” value ([4]; 4 kHz, 80 min after 4-AP 2 mg/kg i.p.) was 3.78 ± 0.09 * ms. For the same compound, the “latency of the P4 wave of the ABR” value ([4]; 4 kHz, 100 min after 4-AP 2 mg/kg i.p.) was 3.75 ± 0.10 * ms, the “latency of the P4 wave of the ABR” value [4, 14] was 3.51 ± 0.13 ms and the “latency of the P4 wave of the ABR” value [4, 15] was 3.80 ± 0.10 * ms. For the same compound, the “latency of the P4 wave of the ABR” value ([4]; 8 kHz, 80 min after 4-AP 2 mg/kg i.p.) was 3.80 ± 0.10 * ms, the “latency of the P4 wave of the ABR” value ([4]; 8 kHz, 100 min after 4-AP 2 mg/kg i.p.) was 3.83 ± 0.12 * ms and the “time of appearance of seizure (spike-sharp wave) activity in the EEG after injection” value [5] was “about 20 min”. The “seizure induction in anaesthetized animals” value [5, 11] was “developed generalized seizures”, the auditory threshold [6, 12] was 20 ± 2.0 * dB and the auditory threshold [6, 13] was 30 ± 3.5 * dB. The auditory threshold [6, 14] was 10.0 ± 2.0 * dB and the auditory threshold [6, 15] was 23.8 ± 6.3 * dB.
